In PMC5410595, “In Vitro and In Silico Antidiabetic and Antimicrobial Evaluation of Constituents from Kickxia ramosissima (Nanorrhinum ramosissimum)” (Frontiers in Pharmacology, 2017):
pIC50: −log10 of the molar value. “Also recorded” adds a separate entry of the source.

Legend:
Format in all cases: biochemical
[1] = test system: formation of AGEs (BSA-glucose); assay: BSA-glucose antiglycation assay; settings: for Protein glycation BSA-Glucose % inhibition: isolated constituents, at the highest test concentration of 3 mM; for pIC50: read-out: Protein glycation BSA-Glucose IC50
Experimental: (§1) The BSA-glucose and BSA-MGO antiglycation assays were performed as reported before ([Amin et al., 2016]). The test protocol is attached as Supplementary Material ([Amin et al., 2016]).
28 Antiglycation assay (BSA-Glucose assay)
29 In the BSA-glucose assay the prevention of AGEs formation is investigated by determining the
30 fluorescence of the complex formed after incubation of a sugar (glucose) with protein (BSA) in
31 the presence or absence of test compounds. The antiglycation assay was performed according to
32 the method developed by Matsuura et al. (2002) with minor modifications. […]
37 DMSO. The mixtures were incubated at 60°C for 48 h. After incubation, the reaction mixture
38 was allowed to cool down at room temperature. Then 100 µL reaction mixture was transferred
39 to a new plastic tube (1.5 mL) and the reaction was stopped by adding 10 μL of 100% (w/v)
40 trichloroacetic acid (TCA) and to precipitate proteins. The TCA-added mixture was kept at 4°C
41 for 10 min, followed by centrifugation (14000 rpm, 4 °C, 4 min). The supernatant containing
42 unreacted D-glucose, test sample and interfering substances was discarded, whereas the
44 8.1 mM Na2HPO4, 2.68 mM KCl, 1.47 mM KH2PO4, […]). The change in fluorescence
46 of AGEs was monitored by spectrofluorometry (Tecan™ Infinite M200, Giessen, The
47 Netherlands). In order to eliminate interference by autofluorescence of the test compounds, a
48 parallel incubation of test substance with BSA at 60°C without D-glucose was performed for all
50 final concentration) were used as reference compounds.
51 The AGEs inhibition was calculated as
55 where F is the fluorescence intensity.
56 calculated using Sigma plot® 13.0.

[2] = test system: formation of AGEs (BSA-MGO); assay: BSA-MGO antiglycation assay; settings: for Protein glycation BSA-MGO % inhibition: isolated constituents, highest test concentration; for pIC50: read-out: Protein glycation BSA-MGO IC50
Experimental: as §1
60 Protein-glyoxal interaction (BSA-MGO assay)
61 The antiglycation assay using methylgloxyl (MGO) was performed according to the method
62 developed by Peng et al. (2007) with slight modifications. Briefly, methylglyoxal (135 μL, 5.75
63 mM) was incubated with BSA (135 μL, 10 mg/mL) dissolved in phosphate buffer (50 mM, pH
64 7.4, containing sodium azide (0.02%), added to prevent bacterial growth) and test compounds
65 (30 μL) at different final concentrations (1.5 – 0.023 mM) in 100% DMSO. The reaction
66 mixture was incubated at 37 °C for one week. Control solutions only contained methylglyoxal
67 (135 μL, 5.75 mM) BSA (135 μL, 1 0mg/mL) and DMSO (100%) only. The blank samples of
68 similar composition were also prepared simultaneously and kept at 4 °C for one week. The
70 440) due to formation of AGEs was monitored by spectrofluorometry (Tecan® Infinite M200,
71 Giessen, The Netherlands). Aminoguanidine (3-0.046 mM final concentration) was used as
72 reference compound. The AGEs inhibition was calculated as
74 % AGEs inhibition = [1–(S–Sb)/(C–Cb)] x 100
76 where S and C were fluorescence of test samples (in DMSO) and control (test mixtures
77 containing only DMSO) incubated at 37 °C, and where Sb and Cb were fluorescence for
78 samples incubated at 4 °C.
79 using Sigma plot® 13.0.

[3] = biological target: T1, α-glucosidase from Saccharomyces cerevisiae (Saccharomyces cerevisiae, UniProt P53341); assay: α-glucosidase inhibition assay; design: inhibition: dose or concentration left out as unconfirmed; settings: for α-glucosidase % inhibition: at the highest test concentration of 2 mM; for inhibition: read-out: α-glucosidase % inhibition
T1 construct: purchased Sigma-Aldrich
T1 sequence (P53341 whole entry): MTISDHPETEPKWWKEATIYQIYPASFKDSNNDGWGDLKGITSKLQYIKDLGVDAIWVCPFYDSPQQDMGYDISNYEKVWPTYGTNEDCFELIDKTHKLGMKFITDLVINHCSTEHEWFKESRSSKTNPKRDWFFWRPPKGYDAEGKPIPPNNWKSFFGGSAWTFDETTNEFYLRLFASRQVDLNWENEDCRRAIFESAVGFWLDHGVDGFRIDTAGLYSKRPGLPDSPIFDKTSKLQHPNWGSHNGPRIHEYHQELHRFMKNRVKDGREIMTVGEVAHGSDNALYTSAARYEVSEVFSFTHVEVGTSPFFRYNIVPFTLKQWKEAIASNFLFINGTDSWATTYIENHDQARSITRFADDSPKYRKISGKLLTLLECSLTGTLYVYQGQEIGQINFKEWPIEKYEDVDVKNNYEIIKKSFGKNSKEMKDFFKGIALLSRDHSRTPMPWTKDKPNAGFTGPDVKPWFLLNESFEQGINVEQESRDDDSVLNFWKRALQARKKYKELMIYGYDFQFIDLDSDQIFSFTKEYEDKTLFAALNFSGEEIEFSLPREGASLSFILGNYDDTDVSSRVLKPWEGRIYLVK
Experimental: The α-glucosidase assay was carried out according as reported before ([Amin et al., 2016]). The test protocol is attached as Supplementary Material ([Amin et al., 2016]).
81 Inhibition of α-glucosidase.
82 α-Glucosidase inhibitory activity was assayed according to method adopted by Choudhary et al.
83 (2010) with some modifications. Briefly, 50 µL of a solution of α-glucosidase from
84 Saccharomyces cerevisiae (0.2 U/mL in 0.1 M phosphate buffer at pH 6.8, Sigma-Aldrich, St.
85 Louis, MO, USA) was incubated with 20 μL of test compounds or extracts at different
86 concentrations (ranging from 6 mM – 0.372 mM in 25% DMSO for isolated constituents or
87 from 5 mg to 0.039 mg/mL for extracts) at 37 °C for 10 min. Then 50 μl of the substrate,
88 p-nitrophenyl-α-D-glucopyranoside (0.7 mM stock, final concentration 0.29 mM) was added to
89 the reaction mixture and incubated again for 30 min at 37 °C. […]
91 from 834 µg to 6.5 µg/mL for extracts. The reaction was stopped by adding Na2CO3 (100 μl,
92 200 mM stock) solution and the absorbance was measured at 400 nm. Final DMSO
93 concentration remained below 7.5% during the assay.
94 concentration) was used as reference compound.
96 The % inhibition was calculated using the following formula:
98 % Inhibition = 100 – [OD (test sample) / OD (control)] × 100
100 Alpha-glucosidase inhibition was categorized as mild (1-25%), moderate (26-50%), high

[4] = test system: AAPH induced linoleic acid peroxidation; assay: Inhibition of linoleic acid lipid peroxidation, AAPH assay; settings: slope of inhibition time (Tinh) vs. concentration of antioxidant
Experimental: The inhibition of linoleic acid lipid peroxidation was studied according to [Liegeois et al. (2000)] and [Rajic et al. (2010)]. Briefly, 10 μL of a 16 mM linoleic acid dispersion and 10 μL of the test compound (8-1 μM final concentration) were added to the UV cuvette containing 0.93 mL of 0.05 M phosphate buffer, pH 7.4. The oxidation reaction was initiated under air by the addition of 50 μL (40 mM) of AAPH solution. The rate of oxidation at 37°C was monitored by recording the increase of absorption at 234 nm caused by conjugated diene hydroperoxides. The results were compared to the standard inhibitor (Trolox). The AOP is defined as the slope of the curve representing the inhibition time of oxidation (Tinh) vs. the concentration of antioxidant and is expressed in min/μM.

SMILES	Protein glycation BSA-Glucose % inhibition [1]	Protein glycation BSA-MGO % inhibition [2]	α-glucosidase % inhibition [3]	α-glucosidase % inhibition ([3]; listed as compound 1)	AAPH assay AOP (antioxidant power) [4]	inhibition [3]	pIC50 [1]	pIC50 [2]	pIC50 [3]
CO[C@H]1C[C@@]2(O)[C@H](O)[C@@H](O)[C@](C)(OC)[C@H]2[C@@H](OC)O1 [Compound 1, Kickxiasine]	26%	31%	no activity	did not present any activity	0.3 min/µM				
CC1(O)CCC2C(C(=O)O)=COC(OC3OC(CO)C(O)C(O)C3O)C21 (stereo not shown) [Compound 2, Mussaenosidic acid]	35%	23%			0.2 min/µM	15%			
COC(=O)C1=COC(OC2OC(CO)C(O)C(O)C2O)C2C1CCC2(C)O (stereo not shown) [Compound 3, Mussaenoside]	28%	24%			0.1 min/µM	9%			
COc1ccc(-c2cc(=O)c3c(O)c(OC)c(O)cc3o2)cc1 [Compound 5, Pectolinarigenin]					0.2 min/µM		3.10	3.72	3.64
COc1ccc(-c2cc(=O)c3c(O)c(OC)c(O[C@@H]4O[C@H](CO[C@@H]5O[C@@H](C)[C@H](O)[C@@H](O)[C@H]5O)[C@@H](O)[C@H](O)[C@H]4O)cc3o2)cc1 [Compound 6, Pectolinarin]					0.3 min/µM	48%	2.64	3.89	
COC(=O)c1ccc(O)cc1 [Compound 7, 4-Hydroxy benzoic acid methyl ester]	did not present any inhibition; also recorded: no activity	did not present any inhibition; also recorded: no activity			did not present any activity; also recorded: Not active	47%			
